According to US20200239530A1, “COMPOUNDS AND METHODS OF MODULATING PROTEIN DEGRADATION” (Vividion Therapeutics, Inc., priority 2017, published 2020):

How the values were obtained:
[1] = target: T1, PIAS4 E3 SUMO-protein ligase PIAS4 (Homo sapiens, UniProt Q8N2W9); test: Cysteine liganding, probe competition; type: binding; conditions: for Liganded: PIAS4 Res# 326, uniprot Q8N2W9
T1 construct: Cells were resuspended in cold PBS on ice and sonicated with a probe sonicator to achieve lysis; endogenous in cells
T1 sequence (Q8N2W9 1-510): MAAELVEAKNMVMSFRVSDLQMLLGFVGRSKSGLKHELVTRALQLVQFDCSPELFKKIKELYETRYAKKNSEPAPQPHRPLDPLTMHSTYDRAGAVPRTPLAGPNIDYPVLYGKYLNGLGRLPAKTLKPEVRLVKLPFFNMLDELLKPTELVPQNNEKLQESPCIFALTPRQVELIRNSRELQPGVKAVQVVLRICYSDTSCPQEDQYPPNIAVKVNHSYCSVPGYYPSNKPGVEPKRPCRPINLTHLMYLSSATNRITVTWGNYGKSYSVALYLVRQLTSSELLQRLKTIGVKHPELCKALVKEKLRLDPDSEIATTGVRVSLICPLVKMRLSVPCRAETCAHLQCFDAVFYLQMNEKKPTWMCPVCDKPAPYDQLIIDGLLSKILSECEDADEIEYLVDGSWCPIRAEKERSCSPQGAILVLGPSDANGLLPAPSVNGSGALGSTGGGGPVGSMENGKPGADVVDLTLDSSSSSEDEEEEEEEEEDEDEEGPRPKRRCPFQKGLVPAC
Outline: (§1)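 Steps: sonicate cells in cold PBS; treat 5 mg/ml lysate with compound (25° C, 1 hr); add desthiobiotin iodoacetamide probe from a 10 mM stock (25° C, 1 hr); precipitate, reduce, alkylate, digest with trypsin; capture labelled peptides on streptavidin for analysis.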

[2] = target: T2, NEK9 Serine/threonine-protein kinase Nek9 (Homo sapiens, UniProt Q8TD19); test: Cysteine liganding, probe competition; type: binding
T2 construct: Cells were resuspended in cold PBS on ice and sonicated with a probe sonicator to achieve lysis; endogenous in cells
T2 sequence (Q8TD19 1-979): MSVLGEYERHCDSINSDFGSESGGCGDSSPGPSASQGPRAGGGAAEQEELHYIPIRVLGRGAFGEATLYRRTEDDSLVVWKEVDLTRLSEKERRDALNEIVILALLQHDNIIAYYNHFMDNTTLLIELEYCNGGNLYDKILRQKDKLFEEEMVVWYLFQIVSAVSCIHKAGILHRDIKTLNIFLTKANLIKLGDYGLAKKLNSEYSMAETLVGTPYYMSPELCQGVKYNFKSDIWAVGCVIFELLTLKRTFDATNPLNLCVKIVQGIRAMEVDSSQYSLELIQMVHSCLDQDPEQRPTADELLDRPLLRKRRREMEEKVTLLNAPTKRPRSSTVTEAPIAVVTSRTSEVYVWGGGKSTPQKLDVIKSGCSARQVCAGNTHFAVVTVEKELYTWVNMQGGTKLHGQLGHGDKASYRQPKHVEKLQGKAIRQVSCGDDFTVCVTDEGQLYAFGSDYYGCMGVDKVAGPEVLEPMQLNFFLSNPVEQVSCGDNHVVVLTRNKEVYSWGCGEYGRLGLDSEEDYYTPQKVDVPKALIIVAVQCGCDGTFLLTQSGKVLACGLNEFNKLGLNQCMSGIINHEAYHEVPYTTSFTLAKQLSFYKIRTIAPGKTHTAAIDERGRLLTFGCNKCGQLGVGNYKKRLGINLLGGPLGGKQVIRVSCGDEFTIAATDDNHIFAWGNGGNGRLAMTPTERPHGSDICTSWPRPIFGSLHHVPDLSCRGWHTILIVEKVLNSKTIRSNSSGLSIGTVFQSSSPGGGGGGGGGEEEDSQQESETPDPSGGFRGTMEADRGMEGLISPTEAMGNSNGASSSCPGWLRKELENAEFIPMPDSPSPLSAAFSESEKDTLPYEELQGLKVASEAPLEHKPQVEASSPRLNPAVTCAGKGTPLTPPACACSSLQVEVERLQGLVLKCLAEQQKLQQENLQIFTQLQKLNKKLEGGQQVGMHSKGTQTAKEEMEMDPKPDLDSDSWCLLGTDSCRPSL
Outline: as §1

| SMILES | Liganded [1] | Liganded ([2]; NEK9 Res# 260, uniprot Q8TD19) | KB03_100 uM_percent_inhibition ([1]; UniProt Q8N2W9, 100 uM) | 100 Max ([1]; uniprot Q8N2W9) | 100 ave ([1]; uniprot Q8N2W9) | 500 Max ([1]; uniprot Q8N2W9) | 500 ave ([1]; uniprot Q8N2W9) | 100 Max ([2]; uniprot Q8TD19) | 100 ave ([2]; uniprot Q8TD19) | 500 Max ([2]; uniprot Q8TD19) | 500 ave ([2]; uniprot Q8TD19) |
| --- | --- | --- | --- | --- | --- | --- | --- | --- | --- | --- | --- |
| COc1ccc2c(c1)CCCN2C(=O)CCl [KB02] | YES | YES |  |  |  |  |  |  |  |  |  |
| O=C(CCl)Nc1cc(C(F)(F)F)cc(C(F)(F)F)c1 [KBO3] | YES |  | 80% | 35.5 | 30.1 | 87.0 | 75.4 | 9.47 | 9.47 | 56.18 | 56.18 |
